In ChEMBL document CHEMBL3879881, “Substituted pyrazolyl compounds for the treatment of inflammation” (2005):

biological target: T1, Inhibitor of nuclear factor kappa-B kinase subunit beta (Homo sapiens, UniProt O14920); assay: Inhibition of human recombinant C-terminal FLAG-epitope-tagged IKK2 expressed in baculovirus using biotinylated IkappaBalpha peptide as substrate assessed as decrease in [gamma-33P]-ATP incorporation in substrate after 30 mins by scintillation counting method
T1 sequence (O14920 whole entry): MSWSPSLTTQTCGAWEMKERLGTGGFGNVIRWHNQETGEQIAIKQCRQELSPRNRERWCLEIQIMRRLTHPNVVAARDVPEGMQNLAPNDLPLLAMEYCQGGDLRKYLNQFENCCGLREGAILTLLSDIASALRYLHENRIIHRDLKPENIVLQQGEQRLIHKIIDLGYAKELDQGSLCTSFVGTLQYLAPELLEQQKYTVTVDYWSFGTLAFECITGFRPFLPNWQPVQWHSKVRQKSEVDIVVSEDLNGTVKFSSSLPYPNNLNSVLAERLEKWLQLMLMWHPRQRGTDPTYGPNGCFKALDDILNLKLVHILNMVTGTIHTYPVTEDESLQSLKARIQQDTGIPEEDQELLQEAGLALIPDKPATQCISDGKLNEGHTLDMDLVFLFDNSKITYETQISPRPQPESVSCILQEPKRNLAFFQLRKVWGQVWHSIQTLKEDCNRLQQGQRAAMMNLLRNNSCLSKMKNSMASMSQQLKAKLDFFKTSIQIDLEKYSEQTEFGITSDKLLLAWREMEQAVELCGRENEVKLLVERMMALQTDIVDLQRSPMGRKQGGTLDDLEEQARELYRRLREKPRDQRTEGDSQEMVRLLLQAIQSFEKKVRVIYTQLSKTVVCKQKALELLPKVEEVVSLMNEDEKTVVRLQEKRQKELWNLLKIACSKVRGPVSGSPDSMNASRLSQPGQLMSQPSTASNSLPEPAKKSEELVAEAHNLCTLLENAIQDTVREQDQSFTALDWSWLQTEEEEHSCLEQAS

First: NC(=O)c1nn(-c2ccc(S(N)(=O)=O)cc2)c2c1CCc1ccc(NC(=O)Nc3ccccc3)cc1-2
Second: CC(=O)Nc1ccc2c(c1)-c1c(c(C(N)=O)nn1-c1ccc(S(N)(=O)=O)cc1)CC2
The IC50 of the first is lower: 1 to 10 µM for the first, 10 to 100 µM for the second. The first is the more potent here.

C[S+]([O-])c1ccc(Cl)c(C(=O)Nc2ccc3c(c2)-c2c(c(C(N)=O)nn2-c2ccc4c(c2)OCO4)CC3)c1 (stereo unspecified) and NC(=O)c1nn(-c2ccc3c(c2)OCO3)c2c1CCc1ccc(NC(=O)c3cc(Cl)ncc3Cl)cc1-2 cannot be ordered by IC50: at most 1 µM for the first, at most 1 µM for the second.

CCCS(=O)(=O)c1ccc(-n2nc(C(N)=O)c3c2-c2cc(NC(=O)c4cc(NC(=O)OC(C)(C)C)ccc4Cl)ccc2CC3)cc1 and CCCS(=O)(=O)c1ccc(-n2nc(C(N)=O)c3c2-c2cc(NC(=O)c4cc(N)ccc4Cl)ccc2CC3)cc1 cannot be ordered by IC50: 1 to 10 µM for the first, at most 1 µM for the second.

NC(=O)c1nn(-c2ccc(Cl)c(Cl)c2)c2c1CCc1ccc(NC(=O)c3ccccc3Cl)cc1-2 and NC(=O)c1nn(-c2cccnc2)c2c1CCc1ccc(NC(=O)c3ccccc3Cl)cc1-2 fall in the same range of IC50: 1 to 10 µM for the first, 1 to 10 µM for the second.

CS(=O)(=O)c1ccc(-n2nc(C(N)=O)c3c2-c2cc(NC(=O)c4cc(Cl)ccc4N)ccc2CC3)cc1 and CS(=O)(=O)c1ccc(-n2nc(C(N)=O)c3c2-c2cc(NC(=O)c4ccccc4N)ccc2CC3)cc1 fall in the same range of IC50: 1 to 10 µM for the first, 1 to 10 µM for the second.

CS(=O)(=O)c1ccc(C(=O)Nc2ccc3c(c2)-c2c(c(C(N)=O)nn2-c2ccc(OCC(O)CO)cc2)CC3)c(Cl)c1 (stereo unspecified) and Cc1c(O)cccc1C(=O)Nc1ccc2c(c1)-c1c(c(C(N)=O)nn1-c1ccc(S(C)(=O)=O)cc1)CC2 cannot be ordered by IC50: at most 1 µM for the first, at most 1 µM for the second.

CN1CCN(c2cc(C(=O)Nc3ccc4c(c3)-c3c(c(C(N)=O)nn3-c3ccncc3)CC4)c(Cl)cn2)CC1 and CN1CCN(c2ncc(Cl)c(C(=O)Nc3ccc4c(c3)-c3c(c(C(N)=O)nn3-c3ccc(F)cc3)CC4)n2)CC1 cannot be ordered by IC50: at most 1 µM for the first, at most 1 µM for the second.

CN(C)S(=O)(=O)c1ccc(-n2nc(C(N)=O)c3c2-c2cc(N)ccc2CC3)cc1 and CS(=O)(=O)c1ccc(-n2nc(C(N)=O)c3c2-c2cc(N)ccc2CC3)cc1 fall in the same range of IC50: 1 to 10 µM for the first, 1 to 10 µM for the second.

First: NC(=O)c1nn(-c2ccc(S(N)(=O)=O)cc2)c2c1CCc1ccc(NS(=O)(=O)c3ccc4cccnc4c3)cc1-2
Second: NC(=O)c1nn(-c2ccc(S(N)(=O)=O)cc2)c2c1CCc1ccc(NS(=O)(=O)c3ccc(-c4ccccn4)s3)cc1-2
The IC50 of the first is higher: over 100 µM for the first, 10 to 100 µM for the second.

NCc1cc(C(=O)Nc2ccc3c(c2)-c2c(c(C(N)=O)nn2-c2ccc4c(c2)OCO4)CC3)c(Cl)cn1 and NC(=O)c1nn(-c2ccc3c(c2)OCO3)c2c1CCc1ccc(NC(=O)c3cc(Cl)cnc3Cl)cc1-2 cannot be ordered by IC50: at most 1 µM for the first, at most 1 µM for the second.

First: NC(=O)c1nn(-c2ccc(S(N)(=O)=O)cc2)c2c1CCc1ccc(NS(=O)(=O)c3cc(Cl)ccc3Cl)cc1-2
Second: NC(=O)c1nn(-c2ccc(S(N)(=O)=O)cc2)c2c1CCc1ccc(NS(=O)(=O)c3ccccc3Cl)cc1-2
The IC50 of the first is lower: 1 to 10 µM for the first, 10 to 100 µM for the second. The first is the more potent here.

NC(=O)c1nn(-c2ccc(S(N)(=O)=O)cc2)c2c1CCc1ccc(NC(=O)c3cccc(C(F)(F)F)c3)cc1-2 and NC(=O)c1nn(-c2ccc(S(N)(=O)=O)cc2)c2c1CCc1ccc(NC(=O)c3ccc(C(F)(F)F)cc3)cc1-2 fall in the same range of IC50: 1 to 10 µM for the first, 1 to 10 µM for the second.

CC1(C)OCC(COc2ccc(-n3nc(C(N)=O)c4c3-c3cc(NC(=O)c5ccncc5Cl)ccc3CC4)cc2)O1 (stereo unspecified) and CC1(C)OCC(COc2ccc(-n3nc(C(N)=O)c4c3-c3cc(NC(=O)c5cccnc5Cl)ccc3CC4)cc2)O1 (stereo unspecified) fall in the same range of IC50: 1 to 10 µM for the first, 1 to 10 µM for the second.

NC(=O)c1nn(-c2ccc(S(N)(=O)=O)cc2)c2c1CCc1ccc(NC(=O)c3cccc(Br)c3)cc1-2 and NC(=O)c1nn(-c2ccc(S(N)(=O)=O)cc2)c2c1CCc1ccc(NC(=O)c3ccncc3)cc1-2 cannot be ordered by IC50: at most 1 µM for the first, at most 1 µM for the second.

CCS(=O)(=O)c1ccc(-n2nc(C(N)=O)c3c2-c2cc(N)ccc2CC3)cc1 and NC(=O)c1nn(-c2ccc(S(=O)(=O)C(F)(F)F)cc2)c2c1CCc1ccc(N)cc1-2 fall in the same range of IC50: 1 to 10 µM for the first, 1 to 10 µM for the second.

CS(=O)(=O)Nc1ccc2c(c1)-c1c(c(C(N)=O)nn1-c1ccc(S(N)(=O)=O)cc1)CC2 and CS(=O)(=O)Nc1ccc2c(c1)-c1c(c(C(N)=O)nn1-c1ccc(F)cc1)CC2 cannot be ordered by IC50: at most 1 µM for the first, 1 to 10 µM for the second.

NC(=O)c1nn(-c2cccc([N+](=O)[O-])c2)c2c1CCc1ccc(NC(=O)c3ccccc3Cl)cc1-2 and C[S+]([O-])c1ccc(-n2nc(C(N)=O)c3c2-c2cc(NC(=O)c4ccccc4Cl)ccc2CC3)cc1 (stereo unspecified) cannot be ordered by IC50: 1 to 10 µM for the first, at most 1 µM for the second.

CN(C)CCOc1ccc(-n2nc(C(N)=O)c3c2-c2cc(NC(=O)c4ccccc4Cl)ccc2CC3)cc1 and CN(C)CCC(=O)Nc1ccc(-n2nc(C(N)=O)c3c2-c2cc(NC(=O)c4ccccc4Cl)ccc2CC3)cc1 fall in the same range of IC50: 1 to 10 µM for the first, 1 to 10 µM for the second.

C[S+]([O-])c1ccc(-n2nc(C(N)=O)c3c2-c2cc(NC(=O)c4cc(N)ccc4Cl)ccc2CC3)cc1 (stereo unspecified) and C[S+]([O-])c1ccc(-n2nc(C(N)=O)c3c2-c2cc(NC(=O)c4ccncc4Cl)ccc2CC3)cc1 (stereo unspecified) cannot be ordered by IC50: at most 1 µM for the first, at most 1 µM for the second.

NC(=O)c1nn(-c2ccc(/C=C3\CCOC3=O)cc2)c2c1CCc1ccc(NC(=O)c3ccccc3Cl)cc1-2 and CCOC(=O)/C=C/c1ccc(-n2nc(C(N)=O)c3c2-c2cc(NC(=O)c4ccccc4Cl)ccc2CC3)cc1 fall in the same range of IC50: 1 to 10 µM for the first, 1 to 10 µM for the second.

NC(=O)c1nn(-c2ccc(C(F)(F)F)cc2)c2c1CCc1ccc(NC(=O)c3ccccc3Cl)cc1-2 and Cc1ccccc1C(=O)Nc1ccc2c(c1)-c1c(c(C(N)=O)nn1-c1ccc(Br)cc1)CC2 cannot be ordered by IC50: 1 to 10 µM for the first, at most 1 µM for the second.

NC(=O)c1nn(-c2ccc(O)cc2)c2c1CCc1ccc(NC(=O)c3cc4c(cc3Cl)OCO4)cc1-2 and NC(=O)c1nn(-c2ccc3c(c2)OCO3)c2c1CCc1ccc(NC(=O)c3cccnc3N)cc1-2 cannot be ordered by IC50: at most 1 µM for the first, 1 to 10 µM for the second.

First: CC(C)CNc1ccc2c(c1)-c1c(c(C(N)=O)nn1-c1ccc(S(N)(=O)=O)cc1)CC2
Second: CCC(=O)Nc1ccc2c(c1)-c1c(c(C(N)=O)nn1-c1ccc(S(N)(=O)=O)cc1)CC2
The IC50 of the first is higher: 10 to 100 µM for the first, 1 to 10 µM for the second.

CC1Cc2c(C(N)=O)nn(-c3ccc(F)cc3)c2-c2cc(NC(=O)c3cccnc3Cl)ccc21 (stereo unspecified) and CC1Cc2c(C(N)=O)nn(-c3ccc(F)cc3)c2-c2cc(NC(=O)c3ccncc3Cl)ccc21 (stereo unspecified) cannot be ordered by IC50: at most 1 µM for the first, at most 1 µM for the second.

First: NC(=O)c1nn(-c2ccc(S(N)(=O)=O)cc2)c2c1CCc1ccc(NS(=O)(=O)c3ccc(-c4ccccc4)cc3)cc1-2
Second: NC(=O)c1nn(-c2ccc(S(N)(=O)=O)cc2)c2c1CCc1ccc(NS(=O)(=O)c3cccc4ccccc34)cc1-2
The IC50 of the first is lower: 1 to 10 µM for the first, 10 to 100 µM for the second.

N#Cc1ccc(C(=O)Nc2ccc3c(c2)-c2c(c(C(N)=O)nn2-c2ccc4c(c2)OCO4)CC3)cc1 and NC(=O)c1nn(-c2ccc3c(c2)OCO3)c2c1CCc1ccc(NC(=O)c3ccccc3OC(F)(F)F)cc1-2 fall in the same range of IC50: 1 to 10 µM for the first, 1 to 10 µM for the second.

NC(=O)c1nn(-c2ccc(S(N)(=O)=O)cc2)c2c1CCc1ccc(NC(=O)c3cccc(Cl)c3Cl)cc1-2 and NC(=O)c1nn(-c2ccc(S(N)(=O)=O)cc2)c2c1CCc1ccc(NC(=O)c3cccnc3Cl)cc1-2 cannot be ordered by IC50: at most 1 µM for the first, at most 1 µM for the second.

CN(C)CCNS(=O)(=O)c1ccc(-n2nc(C(N)=O)c3c2-c2cc(N)ccc2CC3)cc1 and COCC(=O)Nc1ccc2c(c1)-c1c(c(C(N)=O)nn1-c1ccc(S(N)(=O)=O)cc1)CC2 fall in the same range of IC50: 1 to 10 µM for the first, 1 to 10 µM for the second.

NC(=O)/C=C/c1ccc(-n2nc(C(N)=O)c3c2-c2cc(NC(=O)c4cccnc4Cl)ccc2CC3)cc1 and CC(O)c1ccc(-n2nc(C(N)=O)c3c2-c2cc(NC(=O)c4cccnc4Cl)ccc2CC3)cc1 (stereo unspecified) cannot be ordered by IC50: at most 1 µM for the first, at most 1 µM for the second.

NC(=O)c1nn(-c2ccc(CCCO)cc2)c2c1CCc1ccc(NC(=O)c3cccnc3Cl)cc1-2 and NC(=O)c1nn(-c2cccc(F)c2)c2c1CCc1ccc(NC(=O)c3cccc(Cl)c3F)cc1-2 cannot be ordered by IC50: at most 1 µM for the first, 1 to 10 µM for the second.

NC(=O)c1nn(-c2ccc(NC(=O)c3ccccc3Cl)cc2)c2c1CCc1ccc(NC(=O)c3ccccc3Cl)cc1-2 and CC(C)(C)C(=O)ONCCCCC(=O)Nc1ccc(-n2nc(C(N)=O)c3c2-c2cc(NC(=O)c4ccccc4Cl)ccc2CC3)cc1 fall in the same range of IC50: 1 to 10 µM for the first, 1 to 10 µM for the second.

COc1cccc(CC(=O)Nc2ccc3c(c2)-c2c(c(C(N)=O)nn2-c2ccc(S(N)(=O)=O)cc2)CC3)c1 and Cc1cccc(C(=O)Nc2ccc3c(c2)-c2c(c(C(N)=O)nn2-c2ccc(S(C)(=O)=O)cc2)CC3)c1C fall in the same range of IC50: 1 to 10 µM for the first, 1 to 10 µM for the second.

CS(=O)(=O)c1ccc(-n2nc(C(N)=O)c3c2-c2cc(NC(=O)c4cc(Cl)ncc4Cl)ccc2CC3)cc1 and C[C@@H]1CN(c2cc(C(=O)Nc3ccc4c(c3)-c3c(c(C(N)=O)nn3-c3ccc(F)cc3)CC4)c(Cl)cn2)CCN1 cannot be ordered by IC50: at most 1 µM for the first, at most 1 µM for the second.

C#CCN(CC#C)S(=O)(=O)c1ccc(-n2nc(C(N)=O)c3c2-c2cc(NC(=O)c4ccccc4Cl)ccc2CC3)cc1 and NC(=O)c1nn(-c2cc(F)cc(F)c2)c2c1CCc1ccc(NC(=O)c3ccccc3Cl)cc1-2 cannot be ordered by IC50: 1 to 10 µM for the first, at most 1 µM for the second.

CNCC(=O)Nc1ccc2c(c1)-c1c(c(C(N)=O)nn1-c1ccc3c(c1)OCO3)CC2 and CS(=O)(=O)c1ncc(Cl)c(C(=O)Nc2ccc3c(c2)-c2c(c(C(N)=O)nn2-c2ccc4c(c2)OCO4)CC3)n1 cannot be ordered by IC50: 1 to 10 µM for the first, at most 1 µM for the second.

With NC(=O)c1nn(-c2cc(F)cc(F)c2)c2c1CCc1ccc(NC(=O)c3cccc(Cl)c3Cl)cc1-2 the IC50 was 1 to 10 µM.
